Measured values reported in paper PMC9516332 (Frontiers in Oncology, 2022).
Read-outs that look alike come from different tables or passages of the source.

Tests used:
Experiment in all cases: Kinase panel profiling at 1 µmol/L (MSA or IMAP), percentage inhibition
Format in all cases: biochemical
[1] = biological target: T1, panel of 255 wild-type kinases (Homo sapiens, UniProt Q9HBY8); conditions: read-out: %-inhibition at 1 µmol/L, SGK2
T1 sequence (Q9HBY8 1-367): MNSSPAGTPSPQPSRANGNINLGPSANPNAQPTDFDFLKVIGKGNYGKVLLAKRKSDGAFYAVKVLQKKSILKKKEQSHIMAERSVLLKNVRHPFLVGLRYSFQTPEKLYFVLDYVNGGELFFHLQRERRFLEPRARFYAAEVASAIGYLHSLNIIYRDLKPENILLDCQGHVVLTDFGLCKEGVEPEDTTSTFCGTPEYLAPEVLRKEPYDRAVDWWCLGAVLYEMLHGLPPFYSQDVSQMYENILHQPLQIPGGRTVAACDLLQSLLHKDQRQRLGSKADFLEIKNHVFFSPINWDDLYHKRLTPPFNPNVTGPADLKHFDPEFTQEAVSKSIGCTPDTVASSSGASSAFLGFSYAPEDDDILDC

[2] = biological target: panel of 255 wild-type kinases (Homo sapiens, UniProt P16234); conditions: read-out: %-inhibition at 1 µmol/L, PDGFRα
[3] = biological target: T2, panel of 255 wild-type kinases (Homo sapiens, UniProt Q8IW41); conditions: read-out: %-inhibition, MAPKAPK5
T2 sequence (Q8IW41 1-473): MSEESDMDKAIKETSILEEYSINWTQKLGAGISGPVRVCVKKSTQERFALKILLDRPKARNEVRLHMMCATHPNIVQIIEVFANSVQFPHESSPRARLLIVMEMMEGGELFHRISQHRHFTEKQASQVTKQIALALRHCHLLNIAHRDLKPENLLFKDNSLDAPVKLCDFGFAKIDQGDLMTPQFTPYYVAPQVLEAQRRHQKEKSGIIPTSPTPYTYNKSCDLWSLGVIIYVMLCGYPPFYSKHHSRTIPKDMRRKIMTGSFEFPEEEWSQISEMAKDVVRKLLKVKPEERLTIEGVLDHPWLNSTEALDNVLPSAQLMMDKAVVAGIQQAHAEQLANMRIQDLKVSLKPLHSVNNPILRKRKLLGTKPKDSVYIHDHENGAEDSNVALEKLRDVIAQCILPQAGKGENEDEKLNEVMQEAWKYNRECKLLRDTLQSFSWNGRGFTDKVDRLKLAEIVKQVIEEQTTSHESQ

[4] = biological target: T3, panel of 255 wild-type kinases (Homo sapiens, UniProt P41743); conditions: read-out: %-inhibition at 1 µmol/L, PKCι
T3 sequence (P41743 1-596): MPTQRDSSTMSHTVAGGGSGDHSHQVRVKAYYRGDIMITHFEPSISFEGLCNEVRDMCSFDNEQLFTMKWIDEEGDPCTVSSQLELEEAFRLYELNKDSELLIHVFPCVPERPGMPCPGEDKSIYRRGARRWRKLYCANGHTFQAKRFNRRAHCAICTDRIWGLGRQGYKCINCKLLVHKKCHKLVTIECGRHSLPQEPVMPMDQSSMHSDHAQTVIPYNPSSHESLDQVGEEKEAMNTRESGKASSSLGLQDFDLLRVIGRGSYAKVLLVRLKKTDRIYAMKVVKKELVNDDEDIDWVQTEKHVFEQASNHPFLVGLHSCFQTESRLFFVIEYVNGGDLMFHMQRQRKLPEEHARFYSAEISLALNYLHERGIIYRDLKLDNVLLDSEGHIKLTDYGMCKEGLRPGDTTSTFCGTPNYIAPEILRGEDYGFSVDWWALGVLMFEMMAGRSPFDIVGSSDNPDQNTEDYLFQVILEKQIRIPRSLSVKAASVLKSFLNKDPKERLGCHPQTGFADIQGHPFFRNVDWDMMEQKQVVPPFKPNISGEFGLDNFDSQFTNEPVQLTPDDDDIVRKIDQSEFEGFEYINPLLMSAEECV

[5] = biological target: panel of 255 wild-type kinases (Homo sapiens, UniProt Q15759); conditions: read-out: %-inhibition, p38β
[6] = biological target: T4, panel of 255 wild-type kinases (Homo sapiens, UniProt Q06418); conditions: read-out: %-inhibition at 1 µmol/L, TYRO3
T4 sequence (Q06418 41-890): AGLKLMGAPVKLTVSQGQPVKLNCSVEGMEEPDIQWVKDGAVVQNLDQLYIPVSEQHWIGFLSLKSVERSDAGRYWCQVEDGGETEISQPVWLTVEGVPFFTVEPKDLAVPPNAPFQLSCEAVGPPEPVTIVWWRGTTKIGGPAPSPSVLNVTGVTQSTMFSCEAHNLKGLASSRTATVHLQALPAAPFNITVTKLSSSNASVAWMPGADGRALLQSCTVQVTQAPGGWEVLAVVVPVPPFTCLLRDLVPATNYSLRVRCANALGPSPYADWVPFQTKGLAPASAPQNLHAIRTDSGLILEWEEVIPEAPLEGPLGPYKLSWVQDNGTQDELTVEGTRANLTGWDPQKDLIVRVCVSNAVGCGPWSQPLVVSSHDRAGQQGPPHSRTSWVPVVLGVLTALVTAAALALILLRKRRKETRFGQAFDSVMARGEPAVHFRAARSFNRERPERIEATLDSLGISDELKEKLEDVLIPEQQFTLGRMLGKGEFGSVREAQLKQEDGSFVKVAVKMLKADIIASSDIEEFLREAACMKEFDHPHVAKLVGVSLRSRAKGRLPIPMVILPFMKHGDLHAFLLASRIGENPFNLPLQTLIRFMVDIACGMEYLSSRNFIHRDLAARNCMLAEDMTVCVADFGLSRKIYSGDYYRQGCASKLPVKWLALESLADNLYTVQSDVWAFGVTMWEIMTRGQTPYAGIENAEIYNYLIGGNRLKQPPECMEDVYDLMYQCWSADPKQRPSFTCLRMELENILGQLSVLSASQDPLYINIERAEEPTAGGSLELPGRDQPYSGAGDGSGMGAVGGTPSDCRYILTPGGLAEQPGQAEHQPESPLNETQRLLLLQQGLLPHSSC

[7] = biological target: panel of 255 wild-type kinases (Homo sapiens, UniProt Q9P289); conditions: read-out: %-inhibition, MST4

SMILES	inhibition at 1 µM [1]	inhibition at 1 µM [2]	inhibition at 1 µM [3]	inhibition at 1 µM [4]	inhibition at 1 µM [5]	inhibition at 1 µM [6]	inhibition at 1 µM [7]	inhibition at 1 µM ([1]; kinase SGK2, 1 µmol/L single concentration)	inhibition at 1 µM ([2]; kinase PDGFRα, 1 µmol/L single concentration)	inhibition at 1 µM ([3]; MAPKAPK5, 1 µmol/L single concentration)	inhibition at 1 µM ([4]; kinase PKCι, 1 µmol/L single concentration)	inhibition at 1 µM ([5]; p38β, 1 µmol/L single concentration)	inhibition at 1 µM ([6]; kinase TYRO3, 1 µmol/L single concentration)	inhibition at 1 µM ([7]; MST4, 1 µmol/L single concentration)
CNC(=O)c1ccc(-c2cnc3ncc(Cc4ccc5ncccc5c4)n3n2)cc1F [capmatinib]	-5.54%	18%	-7%	-10%	-2.57%	7%	-2.24%							
C[C@H](Nc1ncnc2nc[nH]c12)c1cc2cccc(Cl)c2c(=O)n1-c1ccccc1 [duvelisib]								-2.27%	2%	0.859%	18%	0.677%	6%	-3.25%
